From PMC10354055, “An optimized Nurr1 agonist provides disease-modifying effects in Parkinson’s disease models” (Nature Communications, 2023)
Several values for one entry are separate records, joined by “and”; a condition that tells them apart may be missing. Equal entries are not always repeated.

Tests used:
HeLa cells = assay: Lysosomal pH detection, LysoSensor, HeLa cells; format: cell-based; conditions: Supplementary Figure S7d; individual replicates
Method: (§1) Lysosomal pH was detected as previously described. Briefly, after incubation in EBSS containing BafA1 (10 nM), CQ (20 µM), or 4A7C-301 (1 µM) for 6 h, HeLa and N27-A cells were treated with LysoSensor™ Yellow/Blue DND-160 (5 µM; Life Technology) for 45 min, followed by 2 washes in HEPES buffer (Gibco). Fluorescence images at excitation/emission wavelengths of 360/460 nm and 470/525 nm were taken immediately using a 400 nm dichroic mirror (KEYENCE). The ratio of fluorescence intensities (F360/470) were measured and calculated manually using ImageJ for each cell. The average pH from measuring 5 cells from each of three wells for each treatment group in both HeLa and N27-A cells was calculated by fitting the F360/470 values to a plotted pH calibration curve with KCl/NaCl buffered from pH 3.5 to 7.0 using GraphPad Prism (Version 8.0.2).

[1] = tested on: mouse ventral mesencephalic (VM) primary cells; assay: Dopaminergic gene expression, qRT-PCR, primary VM cells with 6-OHDA; format: cell-based
Method: Total RNA was extracted using the GeneJET RNA Purification Kit (Thermo Fisher Scientific) and 100 ng of RNA was subjected to cDNA synthesis using Invitrogen Superscript cDNA Synthesis Kit (Invitrogen) according to the manufacturer’s protocol. qRT-PCR was performed using a CFX Connect Real-Time System (Bio-Rad) in a 20 μl volume mixture containing 2X SsoAdvanced Universal SYBR Green Supermix (Bio-Rad), 100 ng/μl of forward and reverse primers, and 1 μl of cDNA sample. Gene expression levels were quantified by the 2^∆∆CT method (Ct of target gene—Ct of glyceraldehyde-3-phosphate dehydrogenase (GAPDH). The following primers were used for qRT-PCR: TH forward: 5′-[…]-3′, reverse: 5′-[…]-3′; DAT forward: 5′-[…]-3′, reverse: 5′-[…]-3′; AADC forward: 5′-[…]-3′, reverse: 5′-[…]-3′; VMAT2 forward: 5′-[…]-3′, reverse: 5′-[…]-3′; c-Ret forward: 5′-[…]-3′, reverse: 5′-[…]-3′; TNFα forward: 5′-[…]-3′; reverse: 5′-[…]-3′; GAPDH, forward 5′-[…]-3′, reverse 5′-[…]-3′.
Briefly, dissected VM brain tissues were collected in ice-cold Dulbecco’s phosphate-buffered saline (DPBS) and then mechanically dissociated using pipettes. Thereafter, dissociated tissues were incubated in 0.05 % Trypsin-EDTA (Invitrogen) for 5 min at 37 °C. The cell suspension was plated onto glass coverslips in 48-well plates pre-coated with […] poly-L-ornithine, 5 μg/ml Fibronectin or 1 μg/ml Laminin at a density of 2.0 × 10^5 cells/cm^2 in differentiation medium (1% heat-inactivated FBS, 2 mM L-glutamine, 50X B27 supplement, 100 μM ascorbic acid and 2 μg/ml bFGF in Neurobasal media).

MPTP-induced male mice = assay: Dopamine ELISA in SN and STR, MPTP-induced mice; format: in vivo, mouse; conditions: for DA: individual animals
Method: MPTP (Sigma-Aldrich) was intraperitoneally (i.p.) injected (30 mg/kg) for 5 days (Day 1-5). […] To test dyskinetic involuntary behavior, an L-DOPA injected group was included, which received 50 mg/kg of L-DOPA and 15 mg/kg of benserazide (Sigma-Aldrich) (i.p.) for 16 days (Day 1–16). All compounds were administered 6 h post-MPTP injection to avoid any effect of compounds on the MPTP metabolism in the brain. Motor and non-motor related behavior tests were performed on the following days as described in Fig. 4a in an assessor- and observer-blinded fashion. Pre-training and baseline setup for motor-related behaviors were performed 3 days prior to the injections. Mice were sacrificed and subjected to immunohistochemistry. Mice were housed at the Animal Care Facilities of McLean Hospital under a 12-h light/12-h dark cycle, ambient temperature and humidity. Animals were handled in accordance with McLean Hospital’s Institutional Animal Care and Use Committee (Protocol #: 2015N000002) and followed National Institutes of Health guidelines.
(§2) For MPTP-induced mice, the left hemisphere of each group (n = 5) was used for analysis and compared to the vehicle-treated group (VEH). For AAV-αSyn-injected mouse model, the viral vector injected side (left hemisphere; ipsilateral) of each group (n = 3) was compared to the non-injected side (right hemisphere; contralateral).

[2] = tested on: AAV-αSyn-induced male mice; assay: Dopamine ELISA in SN and STR, AAV-αSyn-injected mice; format: in vivo, mouse
From the text: Adeno-associated viruses (AAVs) expressing GFP only or αSyn (wild-type or A53T) were kindly provided by Dr. Yoon Seong Kim from the University of Central Florida. Recombinant AAV vectors were produced using modified pAAV-IRES-hrGFP (Agilent) to express wild-type and mutant human αSyn under control of the CMV promoter. Viral particles (AAV2) were produced at the University of Iowa Viral Vector Core according to standard operating procedures (https://medicine.uiowa.edu/vectorcore/). […] AAV vectors were delivered into the substantia nigra unilaterally by stereotaxic surgery.
as §2

Nurr1-LBD = target: T1, Nurr1-LBD (Mus musculus, UniProt Q06219); assay: Luciferase reporter assay, Nurr1-LBD, SK-N-BE(2)C cells; format: cell-based; conditions: for Luciferase activity (fold): Fig. 1d
T1 construct: transfected with pCMV-fNurr1, pGAL-Nurr1(LBD), pGAL-Nor1(LBD) or pGAL-Nur77(LBD) and reporter construct; expressed in transfected cells; host or cells: SK-N-BE(2)C (human neuroblastoma), N27-A (rat dopaminergic), MN9D (murine dopaminergic)
T1 sequence (Q06219 360-595 limits assumed): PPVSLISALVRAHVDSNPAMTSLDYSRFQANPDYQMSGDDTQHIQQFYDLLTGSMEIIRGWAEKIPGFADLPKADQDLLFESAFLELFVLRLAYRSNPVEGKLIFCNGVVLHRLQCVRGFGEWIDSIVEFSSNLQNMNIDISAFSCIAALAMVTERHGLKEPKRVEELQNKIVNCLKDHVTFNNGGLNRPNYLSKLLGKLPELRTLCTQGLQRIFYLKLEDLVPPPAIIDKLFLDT
From the text: Nurr1 transactivity was normalized to β-galactosidase activity.

N27-A cells [3] = assay: Cellular oxidative stress, DCFDA ROS assay, N27-A cells; format: cell-based, rat; conditions: for ROS intensity (fold of control): Fig. S1i, with MPP+, replicates
Method: Cellular oxidative stress was detected using the DCFDA Cellular ROS Assay Kit (Abcam) according to the manufacturer’s protocol. Briefly, cells seeded in black clear bottom 96 well plate were stained with DCFDA solution (20 µM) for 45 min at 37 °C.

N27-A cells [4] = assay: Lysosomal pH detection, LysoSensor, N27-A cells; format: cell-based, rat; conditions: Figure 3d; individual replicates
Method: as §1

Compound: CCN1CCN(c2cc(N3CCN(CC)CC3)nc(NCCNc3ccnc4cc(Cl)ccc34)n2)CC1 [4A7C-301, N^1-(4,6-bis(4-ethylpiperazin-1-yl)pyrimidin-2-yl)-N^2-(7-chloroquinolin-4-yl)ethane-1,2-diamine]
- Lysosomal pH (HeLa cells): 4.318 and 4.4486 and 4.774 and 4.612 and 4.807 and 4.905 and 4.677 and 3.797 and 4.742 and 4.872 and 3.764 and 3.96 and 3.927 and 3.536
- Relative mRNA levels (fold of Control), AADC ([1]; Fig. S5f/S5g, with 6-OHDA): 1.28 fold of Control and 1.13 fold of Control and 1.203 fold of Control
- Relative mRNA levels (fold of Control), DAT ([1]; Fig. S5f/S5g, with 6-OHDA): 1.197 fold of Control and 1.193 fold of Control and 1.282 fold of Control
- Relative mRNA levels (fold of Control), TH ([1]; Fig. S5f/S5g, with 6-OHDA): 0.9704 fold of Control and 1 fold of Control and 1.046 fold of Control
- Relative mRNA levels (fold of Control), VMAT2 ([1]; Fig. S5f/S5g, with 6-OHDA): 0.9594 fold of Control and 0.8951 fold of Control and 0.9343 fold of Control
- Relative mRNA levels (fold of Control), c-Ret ([1]; Fig. S5f/S5g, with 6-OHDA): 0.9509 fold of Control and 0.8338 fold of Control and 0.9285 fold of Control
- Relative mRNA levels (fold of Control), AADC ([1]; Fig. S5f/S5g, without 6-OHDA): 1.446 fold of Control and 1.683 fold of Control and 1.592 fold of Control
- Relative mRNA levels (fold of Control), DAT ([1]; Fig. S5f/S5g, without 6-OHDA): 2.907 fold of Control and 2.949 fold of Control and 3.159 fold of Control
- Relative mRNA levels (fold of Control), TH ([1]; Fig. S5f/S5g, without 6-OHDA): 2.273 fold of Control and 2.094 fold of Control and 2.264 fold of Control
- Relative mRNA levels (fold of Control), VMAT2 ([1]; Fig. S5f/S5g, without 6-OHDA): 1.573 fold of Control and 1.37 fold of Control and 1.5834 fold of Control
- Relative mRNA levels (fold of Control), c-Ret ([1]; Fig. S5f/S5g, without 6-OHDA): 1.652 fold of Control and 1.7584 fold of Control and 1.7573 fold of Control
- Relative mRNA levels (fold of Control), AADC ([1]; Fig. S5h/S5i, with 6-OHDA): 0.268 fold of Control and 0.3023 fold of Control and 0.2821 fold of Control
- Relative mRNA levels (fold of Control), DAT ([1]; Fig. S5h/S5i, with 6-OHDA): 0.1919 fold of Control and 0.1982 fold of Control and 0.2381 fold of Control
- Relative mRNA levels (fold of Control), TH ([1]; Fig. S5h/S5i, with 6-OHDA): 0.3682 fold of Control and 0.3362 fold of Control and 0.3267 fold of Control
- Relative mRNA levels (fold of Control), VMAT2 ([1]; Fig. S5h/S5i, with 6-OHDA): 0.2168 fold of Control and 0.2497 fold of Control and 0.2445 fold of Control
- Relative mRNA levels (fold of Control), c-Ret ([1]; Fig. S5h/S5i, with 6-OHDA): 0.2351 fold of Control and 0.2454 fold of Control and 0.2588 fold of Control
- Relative mRNA levels (fold of Control), AADC ([1]; Fig. S5h/S5i, without 6-OHDA): 0.385 fold of Control and 0.3813 fold of Control and 0.3915 fold of Control
- Relative mRNA levels (fold of Control), DAT ([1]; Fig. S5h/S5i, without 6-OHDA): 0.3184 fold of Control and 0.317 fold of Control and 0.3059 fold of Control
- Relative mRNA levels (fold of Control), TH ([1]; Fig. S5h/S5i, without 6-OHDA): 0.5668 fold of Control and 0.4913 fold of Control and 0.5193 fold of Control
- Relative mRNA levels (fold of Control), VMAT2 ([1]; Fig. S5h/S5i, without 6-OHDA): 0.4847 fold of Control and 0.4471 fold of Control and 0.4495 fold of Control
- Relative mRNA levels (fold of Control), c-Ret ([1]; Fig. S5h/S5i, without 6-OHDA): 0.4648 fold of Control and 0.44 fold of Control and 0.4811 fold of Control
- dopaminergic gene expression (in words) ([1]; VM primary cells, decreased by 6-OHDA, CQ 20 µM, 4A7C-301 0.5 µM): significantly rescued
- DA levels in the SN (in words) (MPTP-induced male mice): significantly restored
- DA levels in the STR (in words) (MPTP-induced male mice): significantly restored
- DA (MPTP-induced male mice; Supplementary Figure S10b): 62.619 pg/mL and 53.876 pg/mL and 49.863 pg/mL and 62.002 pg/mL and 54.392 pg/mL
- DA (MPTP-induced male mice; Supplementary Figure S10c): 384.546 pg/mL and 562.262 pg/mL and 361.203 pg/mL and 377.923 pg/mL and 404.591 pg/mL
- DA level (% of contralateral side) ([2]; Supplementary Figure S10e, αSynA53T): 52.259 % of contralateral side and 51.869 % of contralateral side and 51.727 % of contralateral side
- DA level (% of contralateral side) ([2]; Supplementary Figure S10e, αSynWT): 78.777 % of contralateral side and 81.036 % of contralateral side and 79.879 % of contralateral side
- DA level (% of contralateral side) ([2]; Supplementary Figure S10f, αSynA53T): 55.117 % of contralateral side and 54.305 % of contralateral side and 55.007 % of contralateral side
- DA level (% of contralateral side) ([2]; Supplementary Figure S10f, αSynWT): 77.063 % of contralateral side and 74.376 % of contralateral side and 74.108 % of contralateral side
- DA levels (in words) ([2]; αSynA53T-mice): increased
- DA levels in the SN and STR (in words) ([2]; αSynWT-mice): significantly increased
- Luciferase activity (fold), Nurr1 (Nurr1-LBD; Fig. 1f, CQ 100 µM, 4A7C-301 20 µM): 16.1033 fold and 17.0687 fold and 15.1126 fold
- Luciferase activity (fold) (Nurr1-LBD; 0.1 µM): 1.566 fold and 1.556 fold and 1.583 fold
- Luciferase activity (fold) (Nurr1-LBD; 1 µM): 2.853 fold and 2.913 fold and 2.848 fold
- Luciferase activity (fold) (Nurr1-LBD; 10 µM): 8.938 fold and 9.512 fold and 11.2109 fold
- Luciferase activity (fold) (Nurr1-LBD; 20 µM): 17.8435 fold and 18.5652 fold and 17.952 fold
- EC50 (Nurr1-LBD; Nurr1-LBD and full-length Nurr1, SK-N-BE(2)C cells, Fig. 1d,e): 7 to 8 µM
- Maximum fold activity (Nurr1-LBD; Nurr1 activation, Supplementary Table 1): 18.12 ± 3.02 fold and 18.12 fold
- EC50 (Nurr1-LBD; Nurr1 activation, Supplementary Table 1, values in µM): 6.53 µM
- MPP+-induced ROS levels (in words) (N27-A cells [3]; CQ 100 µM, 4A7C-301 1 µM): significantly reduced
- ROS intensity (fold of control) (N27-A cells [3]; Control cells): 1.457 fold of control and 1.389 fold of control and 1.394 fold of control
- ROS intensity (fold of control) (N27-A cells [3]; Nurr1 KD cells): 2.059 fold of control and 2.042 fold of control and 2.017 fold of control
- ROS intensity (fold of control) (N27-A cells [3]; Nurr1 OE cells): 0.87 fold of control and 0.894 fold of control and 0.877 fold of control
- Lysosomal pH (N27-A cells [4]): 3.797 and 3.992 and 4.709 and 4.807 and 4.383 and 3.8621 and 3.96 and 4.416 and 4.97 and 4.481 and 4.351 and 4.742 and 4.221 and 3.927
